# pKi: −log10 of the molar value.
# Biological target: Bcl-xL (GST-Bcl-xL) (Homo sapiens, UniProt Q07817)
# Test: TR-FRET binding assay, competition with F-Bak for the Bcl-xL binding site
# Conditions: values listed in the order of Table 1, read-out: TR-FRET assay results (Ki), Bcl-xL
# Experimental: The measurement of competition of compounds of the invention with F-Bak for a Bcl-2 family protein (Bcl-xL) binding site using a Time Resolved Fluorescence Resonance Energy Transfer (TR-FRET) binding assay:
# Test compounds were serially diluted in DMSO starting at 50 μM (2× starting concentration; 10% DMSO) and 10 μt transferred into a 384-well plate.
# The samples are then mixed on a shaker for 1 minute then incubated for an additional 2 hours at room temperature. For each assay plate, a probe/antibody and protein/antibody/probe mixture were included as a negative and a positive control, respectively. Fluorescence was measured on the Envision (Perkin Elmer) using a 340/35 nm excitation filter and 520/525 (F-Bak) and 495/510 nm (Tb-labeled anti-his antibody) emission filters. Dissociation constants (Ki) were determined using Wang's equation (see, Wang, Z. X. An exact mathematical expression for describing competitive binding of two different ligands to a protein molecule. FEBS Lett. 1995 360:111-114). The TR-FRET assay can be performed in the presence of varying concentrations of human serum (HS) or fetal bovine serum (FBS).
# Chain of Bcl-xL (GST-Bcl-xL) (Q07817 whole entry, species assumed): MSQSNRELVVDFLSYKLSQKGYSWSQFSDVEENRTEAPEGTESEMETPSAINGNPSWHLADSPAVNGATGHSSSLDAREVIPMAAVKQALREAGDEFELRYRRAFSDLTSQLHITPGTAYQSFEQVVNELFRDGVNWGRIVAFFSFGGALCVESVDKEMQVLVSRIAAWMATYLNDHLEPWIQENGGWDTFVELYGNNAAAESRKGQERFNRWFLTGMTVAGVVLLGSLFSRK
row,SMILES,pKi
1,"O=C(Nc1nc2ccccc2s1)c1cccc2c1CN(c1nc(C(=O)O)c(CCCCn3ccnc3)s1)CC2 [Example 72, 5-(4-(1H-imidazol-1-yl)butyl)-2-(8-(benzo[d]thiazol-2-ylcarbamoyl)-3,4-dihydroisoquinolin-2(1H)-yl)thiazole-4-carboxylic acid]",8.52
2,"O=C(Nc1nc2ccccc2s1)c1cccc2c1CN(c1nc(C(=O)O)c(CCCOc3ccc(-c4cn[nH]c4)cc3)s1)CC2 [Example 73, 5-(3-(4-(1H-pyrazol-4-yl)phenoxy)propyl)-2-(8-(benzo[d]thiazol-2-ylcarbamoyl)-3,4-dihydroisoquinolin-2(1H)-yl)thiazole-4-carboxylic acid]",10.10
3,"N[C@H]1[C@@H]2CCC[C@H]1[C@@H](c1ccc(OCCCc3sc(N4CCc5cccc(C(=O)Nc6nc7ccccc7s6)c5C4)nc3C(=O)O)cc1)CC2 [Example 80, 5-(3-(4-((1S,2S,5R,9S)-9-aminobicyclo[3.3.1]nonan-2-yl)phenoxy)propyl)-2-(8-(benzo[d]thiazol-2-ylcarbamoyl)-3,4-dihydroisoquinolin-2(1H)-yl)thiazole-4-carboxylic acid]",9.30
4,"O=C(Nc1nc2ccccc2s1)c1cccc2c1CN(c1nc(C(=O)O)c(CCCOc3ccc(-c4cnn(CCN5CCOCC5)c4)cc3)s1)CC2 [Example 83, 2-(8-(benzo[d]thiazol-2-ylcarbamoyl)-3,4-dihydroisoquinolin-2(1H)-yl)-5-(3-(4-(1-(2-morpholinoethyl)-1H-pyrazol-4-yl)phenoxy)propyl)thiazole-4-carboxylic acid]",10.30
5,"Cc1c(CN2CCN(C)CC2)cnn1-c1ccc(OCCCc2sc(N3CCc4cccc(C(=O)Nc5nc6ccccc6s5)c4C3)nc2C(=O)O)cc1 [Example 85, 2-(8-(benzo[d]thiazol-2-ylcarbamoyl)-3,4-dihydroisoquinolin-2(1H)-yl)-5-(3-(4-(5-methyl-4-((4-methylpiperazin-1-yl)methyl)-1H-pyrazol-1-yl)phenoxy)propyl)thiazole-4-carboxylic acid]",10.30
6,"CN1CCN(Cc2ccc(OCCCc3sc(N4CCc5cccc(C(=O)Nc6nc7ccccc7s6)c5C4)nc3C(=O)O)cc2)CC1 [Example 89, 2-[8-(Benzothiazol-2-ylcarbamoyl)-3,4-dihydro-1H-isoquinolin-2-yl]-5-{3-[4-(4-methyl-piperazin-1-ylmethyl)-phenoxy]-propyl}-thiazole-4-carboxylic acid]",10.00
7,"CN1CCN(CCCN(CCCc2sc(N3CCc4cccc(C(=O)Nc5nc6ccccc6s5)c4C3)nc2C(=O)O)c2ncnc3c2cnn3-c2ccc(O)cc2)CC1 [Example 91, 2-(8-(benzo[d]thiazol-2-ylcarbamoyl)-3,4-dihydroisoquinolin-2(1H)-yl)-5-(3-((1-(4-hydroxyphenyl)-1H-pyrazolo[3,4-d]pyrimidin-4-yl)(3-(4-methylpiperazin-1-yl)propyl)amino)propyl)thiazole-4-carboxylic acid]",9.15
8,"CN(C)CCCNc1ncnc2c1cnn2-c1ccc(OCCCc2ccc(N3CCc4cccc(C(=O)Nc5nc6ccccc6s5)c4C3)nc2C(=O)O)cc1 [Example 92, 6-(8-(benzo[d]thiazol-2-ylcarbamoyl)-3,4-dihydroisoquinolin-2(1H)-yl)-3-(3-(4-(4-(3-(dimethylamino)propylamino)-1H-pyrazolo[3,4-d]pyrimidin-1-yl)phenoxy)propyl)picolinic acid]",10.30
9,"O=C(Nc1nc2ccccc2s1)c1cccc2c1CN(c1ccc(CCCO)c(C(=O)O)n1)CC2 [Example 99, 6-[8-(Benzothiazol-2-ylcarbamoyl)-3,4-dihydro-1H-isoquinolin-2-yl]-3-(3-hydroxy-propyl)-pyridine-2-carboxylic acid]",6.90
10,"CN1CCN(c2ccc(OCCCc3ccc(N4CCc5cccc(C(=O)Nc6nc7ccccc7s6)c5C4)nc3C(=O)O)c(F)c2)CC1 [Example 101, 6-(8-(benzo[d]thiazol-2-ylcarbamoyl)-3,4-dihydroisoquinolin-2(1H)-yl)-3-(3-(2-fluoro-4-(4-methylpiperazin-1-yl)phenoxy)propyl)picolinic acid]",9.15
11,"CN(C)CCCc1ccc(OCCCc2sc(N3CCc4cccc(C(=O)Nc5nc6ccccc6s5)c4C3)nc2C(=O)O)cc1 [Example 107, 2-(8-(benzo[d]thiazol-2-ylcarbamoyl)-3,4-dihydroisoquinolin-2(1H)-yl)-5-(3-(4-(3-(dimethylamino)propyl)phenoxy)propyl)thiazole-4-carboxylic acid]",9.82
12,"O=C(Nc1nc2ccccc2s1)c1cccc2c1CN(c1nc(C(=O)O)c(C#Cc3ccc4cc(OCCCN5CCOCC5)ccc4c3)s1)CC2 [Example 110, 2-(8-(benzo[d]thiazol-2-ylcarbamoyl)-3,4-dihydroisoquinolin-2(1H)-yl)-5-((6-(3-morpholinopropoxy)naphthalen-2-yl)ethynyl)thiazole-4-carboxylic acid]",10.15
13,"O=C(Nc1nc2ccccc2s1)c1cccc2c1CN(c1nc(C(=O)O)c(CCc3ccc4cc(OCCCN5CCOCC5)ccc4c3)s1)CC2 [Example 111, 2-(8-(benzo[d]thiazol-2-ylcarbamoyl)-3,4-dihydroisoquinolin-2(1H)-yl)-5-(2-(6-(3-morpholinopropoxy)naphthalen-2-yl)ethyl)thiazole-4-carboxylic acid]",10.70
14,"O=C(Nc1nc2ccccc2s1)c1cccc2c1CN(c1nc(C(=O)O)c(CCCOc3cc(F)c(NCCN4CCOCC4)cc3F)s1)CC2 [Example 115, 2-(8-(benzo[d]thiazol-2-ylcarbamoyl)-3,4-dihydroisoquinolin-2(1H)-yl)-5-(3-(2,5-difluoro-4-(2-morpholinoethylamino)phenoxy)propyl)thiazole-4-carboxylic acid]",10.30
